# According to US12084472B2 (Ardelyx, Inc., priority 2015, dated 2024):
# Target: T1, human TGR5 (Homo sapiens, UniProt Q8TDU6)
# T1 construct: expressed in transfected cells; host or cells: HEK293
# T1 sequence (Q8TDU6 1-330): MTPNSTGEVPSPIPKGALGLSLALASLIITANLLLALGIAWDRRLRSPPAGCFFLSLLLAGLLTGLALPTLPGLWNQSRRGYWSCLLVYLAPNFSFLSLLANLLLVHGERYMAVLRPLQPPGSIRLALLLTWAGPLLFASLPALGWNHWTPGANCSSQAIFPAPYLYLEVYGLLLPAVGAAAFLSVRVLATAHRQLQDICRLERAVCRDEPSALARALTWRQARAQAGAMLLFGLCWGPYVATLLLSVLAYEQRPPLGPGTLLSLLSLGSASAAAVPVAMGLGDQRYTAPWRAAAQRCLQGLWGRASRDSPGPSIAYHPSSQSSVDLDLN
# Test: Cell-based TGR5 assay (cAMP generation, HTRF)
# Details: HEK293 cells stably transfected with human TGR5; cAMP by HTRF; 30 minutes at 37° C.; read-out: pEC50 Human TGR5 (converted)
# How it was run: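 First, compounds in 3-fold serial dilution were placed in HBSS with 10 mM HEPES pH 7.4 and 0.5 mM IBMX. Next, human TGR5-expressing HEK293 cells were added and incubated 30 min at 37° C. Finally, cAMP was detected by HTRF and pEC50 derived by logistic fitting.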
row,Compound,EC50 [nM]
1,"Clc1cc(Cl)cc(COC2(c3cnccc3-c3ccccc3OC3CC3)CC2)c1 [Compound I-56, 4-(2-cyclopropoxyphenyl)-3-{1-[(3,5-dichlorophenyl)methoxy]cyclopropyl}pyridine]",1260 to 10000
2,"CC(CCCCN(C)C(=O)[C@@H](O)[C@@H](O)[C@H](O)[C@@H](O)CO)c1ccc(Cl)c(CNC2(c3cnccc3-c3ccccc3OC3CC3)CC2)c1 (stereo partly drawn) [Compound I-281, (2S,3S,4R,5S)-N-(5-{4-chloro-3-[({1-[4-(2-cyclopropoxyphenyl)pyridin-3-yl]cyclopropyl}amino)methyl]phenyl}hexyl)-2,3,4,5,6-pentahydroxy-N-methylhexanamide]",< 100
3,"NS(=O)(=O)CCN(CCCCc1cc(Cl)c(COC2(c3cnccc3-c3ccccc3OC3CC3)CC2)cc1Cl)C(=O)[C@H](O)[C@@H](O)[C@H](O)[C@H](O)CO [Compound I-84, (2R,3S,4R,5R)-N-{4-[2,5-dichloro-4-({1-[4-(2-cyclopropoxyphenyl)pyridin-3-yl]cyclopropoxy}methyl)phenyl]butyl}-2,3,4,5,6-pentahydroxy-N-(2-sulfamoylethyl)hexanamide]",< 100
4,"O=C(NCCOCCS(=O)(=O)c1ccc(Cl)c(COC2(c3cnccc3-c3ccccc3OC3CC3)CC2)c1)NC[C@H](O)[C@@H](O)[C@H](O)[C@H](O)CO [Compound I-492, 1-[2-(2-[[4-Chloro-3-([l-[4-(2-cyclopropoxyphenyl)pyridin-3-yl]cyclopropoxy]methyl)benzene]sulfonyl]ethoxy)ethyl]-3-[(2S,3R,4R,5R)-2,3,4,5,6-pentahydroxyhexyl]urea]",< 100
5,"O=C([C@@H](O)[C@@H](O)[C@H](O)[C@@H](O)CO)N(CCCCO)CCCSc1ccc(Cl)c(COC2(c3cnccc3-c3ccccc3OC3CC3)CC2)c1 [Compound I-519, (2S,3S,4R,5S)-N-(3-{[4-chloro-3-({1-[4-(2-cyclopropoxyphenyl)pyridin-3-yl]cyclopropoxy}methyl)phenyl]sulfanyl}propyl)-2,3,4,5,6-pentahydroxy-N-(4-hydroxybutyl)hexanamide]",126 to 1000
6,"O=C(NC[C@H](O)[C@@H](O)[C@H](O)[C@H](O)CO)NC1CCN(C(=O)CCCCc2cc(Cl)c(COC3(c4cnccc4-c4ccccc4OC4CC4)CC3)cc2Cl)CC1 (stereo in doubt) [Compound I-158, 1-(1-{5-[2,5-dichloro-4-({1-[4-(2-cyclopropoxyphenyl)pyridin-3-yl]cyclopropoxy}methyl)phenyl]pentanoyl}piperidin-4-yl)-3-[(2S,3R,4R,5R)-2,3,4,5,6-pentahydroxyhexyl]urea]",< 100
7,"Cc1nc(C)c(CNC2(c3cnccc3-c3ccccc3OC3CC3)CC2)nc1C [Compound I-27, 1-[4-(2-cyclopropoxyphenyl)pyridin-3-yl]-N-[(trimethylpyrazin-2-yl)methyl]cyclopropan-1-amine]",126 to 1000
8,"CN(CCCCc1cc(Cl)c(COC2(c3cnccc3-c3ccccc3OC3CC3)CC2)cc1Cl)C(=O)CN(CCN(CC(=O)O)CC(=O)N(C)CCCCc1cc(Cl)c(COC2(c3cnccc3-c3ccccc3OC3CC3)CC2)cc1Cl)CC(=O)O [Compound I-188, 2-({2-[(carboxymethyl)[({4-[2,5-dichloro-4-({1-[4-(2-cyclopropoxyphenyl)pyridin-3-yl]cyclopropoxy}methyl)phenyl]butyl}(methyl)carbamoyl)methyl]amino]ethyl}[({4-[2,5-dichloro-4-({1-[4-(2-cyclopropoxyphenyl)pyridin-3-yl]cyclopropoxy}methyl)phenyl]butyl}(methyl)carbamoyl)methyl]amino)acetic acid]",126 to 1000
9,"O=C(NCCCCCSc1ccc(Cl)c(COC2(c3cnccc3-c3ccccc3OC3CC3)CC2)c1)[C@@H](O)[C@@H](O)[C@H](O)[C@@H](O)CO [Compound I-611, (2S,3S,4R,5S)-N-(5-{[4-chloro-3-({1-[4-(2-cyclopropoxyphenyl)pyridin-3-yl]cyclopropoxy}methyl)phenyl]sulfanyl}pentyl)-2,3,4,5,6-pentahydroxyhexanamide]",< 100
10,"Cc1ccc(Cl)c(COC2(c3cnccc3-c3ccccc3OC3CC3)CC2)c1 [Compound I-54, 3-{1-[(2-chloro-5-methylphenyl)methoxy]cyclopropyl}-4-(2-cyclopropoxyphenyl)pyridine]",< 100
11,"CC(=O)N(CCCCCSc1ccc(Cl)c(CNC2(c3cnccc3-c3ccccc3OC3CC3)CC2)c1)C[C@H](O)[C@@H](O)[C@H](O)[C@H](O)CO [Compound I-499, N-[5-({4-chloro-3-[({1-[4-(2-cyclopropoxyphenyl)pyridin-3-yl]cyclopropyl}amino)methyl]phenyl}sulfanyl)pentyl]-N-[(2S,3R,4R,5R)-2,3,4,5,6-pentahydroxyhexyl]acetamide]",< 100
12,"O=C(NCCCCc1cc(Cl)c(COC2(c3cnccc3-c3ccccc3OC3CC3)CC2)cc1Cl)NC[C@H](O)[C@@H](O)[C@H](O)[C@H](O)CO [Compound I-141, 1-{4-[2,5-dichloro-4-({1-[4-(2-cyclopropoxyphenyl)pyridin-3-yl]cyclopropoxy}methyl)phenyl]butyl}-3-[(2S,3R,4R,5R)-2,3,4,5,6-pentahydroxyhexyl]urea]",< 100
13,"Cc1ccc(Cl)c(CNC2(c3cnccc3-c3ccccc3OC3CC3)CC2)n1 [Compound I-35, N-[(3-chloro-6-methylpyridin-2-yl)methyl]-1-[4-(2-cyclopropoxyphenyl)pyridin-3-yl]cyclopropan-1-amine]",< 100
14,"CC(CCCC(=O)NC[C@H](O)[C@@H](O)[C@H](O)[C@H](O)CO)c1cc(Cl)c(CNC2(c3cnccc3-c3ccccc3OC3CC3)CC2)cc1Cl (stereo partly drawn) [Compound I-260, 5-[2,5-dichloro-4-[([1-[4-(2-cyclopropoxyphenyl)pyridin-3-yl]cyclopropyl]amino)methyl]phenyl]-N-[(2S,3R,4R,5R)-2,3,4,5,6-pentahydroxyhexyl]hexanamide]",< 100
15,"NC(=O)N(Cc1cc(Cl)ccc1Cl)C1(c2cnccc2-c2ccccc2OC2CC2)CC1 [Compound I-57, 1-[1-[4-(2-cyclopropoxyphenyl)pyridin-3-yl]cyclopropyl]-1-[(2,5-dichloro-phenyl)methyl]urea]",1260 to 10000
16,"Cc1ccc(SCCCCN(CCOCCO)C(=O)[C@@H](O)[C@@H](O)[C@H](O)[C@@H](O)CO)cc1CNC1(c2cnccc2-c2ccccc2OC2CC2)CC1 [Compound I-549, (2S,3S,4R,5S)-N-[4-({3-[({1-[4-(2-cyclopropoxyphenyl)pyridin-3-yl]cyclopropyl}amino)methyl]-4-methylphenyl}sulfanyl)butyl]-2,3,4,5,6-pentahydroxy-N-[2-(2-hydroxyethoxy)ethyl]hexanamide]",< 100
17,"O=C(CCCCc1cc(Cl)c(COC2(c3cnccc3-c3ccccc3OC3CC3)CC2)cc1Cl)NC[C@@H]1O[C@H](C(=O)O)[C@@H](O)[C@H](O)[C@H]1O [Compound I-93, (2S,3S,4R,5R,6S)-6-((5-(2,5-dichloro-4-((1-(4-(2-cyclopropoxyphenyl)pyridin-3-yl)cyclopropoxy)methyl)phenyl)pentanamido)methyl)-3,4,5-trihydroxytetrahydro-2H-pyran-2-carboxylic acid]",< 100
18,"O=C(NC[C@H](O)[C@@H](O)[C@H](O)[C@H](O)CO)c1ccc(CCc2ccc(Cl)c(COC3(c4cnccc4-c4ccccc4OC4CC4)CC3)c2)cn1 [Compound I-748, 5-(4-chloro-3-((1-(4-(2-cyclopropoxyphenyl)pyridin-3-yl)cyclopropoxy)methyl)phenethyl)-N-((2S,3R,4R,5R)-2,3,4,5,6-pentahydroxyhexyl)picolinamide]",< 100
19,"CC(CCCC(=O)N(CCS(=O)(=O)N1CCOCC1)C[C@H](O)[C@@H](O)[C@H](O)[C@H](O)CO)c1ccc(Cl)c(CNC2(c3cnccc3-c3ccccc3OC3CC3)CC2)c1 (stereo partly drawn) [Compound I-262, 5-(4-chloro-3-(((1-(4-(2-cyclopropoxyphenyl)pyridin-3-yl)cyclopropyl)amino)methyl)phenyl)-N-(2-(morpholinosulfonyl)ethyl)-N-((2S,3R,4R,5R)-2,3,4,5,6-pentahydroxyhexyl)hexanamide]",< 100
20,"O=C(CCCSc1ccc(Cl)c(COC2(c3cnccc3-c3ccccc3OC3CC3)CC2)c1)N(C[C@@H](O)[C@H](O)[C@@H](O)[C@@H](O)CO)[C@H]1CC[C@@H](O)CC1 [Compound I-688, 4-{[4-chloro-3-({1-[4-(2-cyclopropoxyphenyl)pyridin-3-yl]cyclopropoxy}methyl)phenyl]sulfanyl}-N-[(2R,3S,4S,5S)-2,3,4,5,6-pentahydroxyhexyl]-N-[(1s,4s)-4-hydroxycyclohexyl]butanamide]",126 to 1000
21,"C[C@H](CCCCNC(=O)N[C@@H](CO)[C@@H](O)[C@H](O)[C@H](O)CO)c1ccc(Cl)c(COC2(c3cnccc3-c3ccccc3OC3CC3)CC2)c1 (single isomer, unassigned) [Compound I-264]",< 100
22,"FC(F)(F)COc1ccccc1-c1ccncc1C1(NCc2cc(Cl)ccc2Cl)CC1 [Compound I-8, N-[(2,5-dichlorophenyl)methyl]-1-{4-[2-(2,2,2-trifluoroethoxy)phenyl]pyridin-3-yl}cyclopropan-1-amine]",126 to 1000
23,"CC(CCCC(=O)N(C[C@@H](O)[C@H](O)[C@@H](O)[C@@H](O)CO)[C@H]1CC[C@@H](O)CC1)c1ccc(Cl)c(CNC2(c3cnccc3-c3ccccc3OC3CC3)CC2)c1 (stereo partly drawn) [Compound I-343, 5-{4-chloro-3-[({1-[4-(2-cyclopropoxyphenyl)pyridin-3-yl]cyclopropyl}amino)methyl]phenyl}-N-[(2R,3S,4S,5S)-2,3,4,5,6-pentahydroxyhexyl]-N-[(1s,4s)-4-hydroxycyclohexyl]hexanamide]",< 100
